Values joined by “and” are separate entries in the source; they are usually repeats but may differ in a detail not shown here. Equal entries are not always repeated.
Test system: adult human subjects with moderate to severe Hidradenitis Suppurativa (HS)
Assay: Phase 2 randomized, double-blind, placebo-controlled study of upadacitinib, efficacy incl. post-hoc analysis through week 40
Format: in vivo
Conditions: for HiSCR at Week 12, % (N), stratum TNF-IR: N=12; for HiSCR at Week 12, % (N), stratum TNF-Naïve: N=35; for subjects achieving HiSCR at Week 12, n (%): upadacitinib 30 mg QD oral, N=47; for subjects achieving Pain NRS30 at Week 12 among subjects with Baseline NRS ≥ 3, n (%): upadacitinib 30 mg QD, N=33
From the text: This study was a Phase 2, multicenter, randomized, double-blind, parallel-group, placebo-controlled study to evaluate the efficacy and safety of upadacitinib in adult human subjects with moderate to severe Hidradenitis Suppurativa (HS).
The duration of the study was 57 weeks, including an approximately 35-day screening period followed by a 48-week double-blinded treatment period and a 30-day follow-up visit after the last dose of study drug. Subjects were randomized in a 2:1 ratio to 1 of the 2 arms as shown below: • Upadacitinib 30 mg once daily (QD) (N=40): Daily oral doses of upadacitinib 30 mg from the Baseline visit through Period 1 and Period 2. • Placebo (N=20): Placebo for upadacitinib from the Baseline visit up to the Week 12 visit (Period 1). At Week 12, subjects were switched to blinded upadacitinib 15 mg QD through Period 2.
The primary objective of this study was to assess the efficacy and safety of upadacitinib 30 mg QD in adult subjects with moderate to severe HS. The primary efficacy objective was assessed based on the achievement of HiSCR after 12 weeks treatment.
The primary endpoint was Hidradenitis Suppurativa Clinical Response (HiSCR) at Week 12, where HiSCR is defined as at least 50% reduction in the total abscess and inflammatory nodule (AN) count with no increase in abscess count and no increase in draining fistula count relative to Baseline.
The secondary endpoint was Pain Numerical Rating Scale (NRS30) at Week 12: the achievement of at least 30% reduction and at least 1 unit reduction from Baseline in NRS30 in Patient's Global Assessment of Skin Pain (PGA Skin Pain) at Week 12, among subjects with Baseline NRS≥3.
The following additional efficacy endpoints were evaluated: • 1. Experience of flare, defined as an increase in AN count of at least 25% with a minimum increase of 2 relative to Baseline • 2. Change from Baseline in Dermatology Life Quality Index (DLQI) • 3. Change from baseline in Hidradenitis Suppurativa Symptom Assessment (HSSA) • 4. Change from baseline in HS-related swelling, assessed based on the HSSA • 5. Change from baseline in HS-related odor, assessed based on the HSSA • 6. Change from baseline in HS-related worst drainage, assessed based on the HSSA
For the primary and secondary endpoints, comparisons of upadacitinib vs. placebo were made with 3 different analysis strategies, as summarized in Table 1 below:
For the additional endpoints, comparisons were made for upadacitinib vs. historical reference value of placebo, and upadacitinib vs. in-trial placebo subjects.
For categorical variables, the primary approach to handle missing data was Non-Responder Imputation [NRI] incorporating Multiple Imputation [MI]. For continuous variables, missing data was handled by Mixed-effect Model Repeat Measurement (MMRM). Missing data for long-term efficacy in Period 2 were handled based on the observed case (OC).
A post-hoc efficacy assessment through week 40 was performed in the study of Example 1. The analysis included the proportion of patients achieving ≥75% and ≥90% reduction from baseline in AN count with no increase in abscess or draining fistula count (HiSCR 75 and HiSCR 90, respectively) and the proportion of patients achieving ≥55% reduction in International HS Severity Score System endpoint (IHS4-55), which dynamically assesses inflammatory nodules, abscesses, and draining tunnels.

[1] = UPA 30 mg, NRI-C, listed as UPA
[2] = UPA 30 mg, analysis vs historical reference value of PBO
[3] = UPA 30 mg, analysis vs in-trial PBO
[4] = Week 12, UPA 30 mg, Observed Case, n=39
[5] = Week 40, PBO/UPA 15 mg (switched at week 12), NRI-C, n=19
[6] = Week 40, UPA 30 mg/UPA 30 mg, NRI-C, n=47
[7] = Week 40, UPA 30 mg/UPA 30 mg, Observed Case, n=29

Compound: CC[C@@H]1CN(C(=O)NCC(F)(F)F)C[C@@H]1c1cnc2cnc3[nH]ccc3n12 [upadacitinib]
- HiSCR at Week 12, % (N), stratum TNF-IR (UPA 30 mg, NRI-C): 41.7%
- HiSCR at Week 12, % (N), stratum TNF-IR [1]: 41.7% (N = 12)
- HiSCR at Week 12, % (N), stratum Hurley Stage (III) (UPA 30 mg, NRI-C, N=23): 39.1% (N = 23)
- HiSCR at Week 12, % (N), stratum Hurley Stage (<III) (UPA 30 mg, NRI-C, N=24): 37.5% (N = 24)
- HiSCR at Week 12, % (N), stratum TNF-Naïve (UPA 30 mg, NRI-C): 37.1%
- HiSCR at Week 12, % (N), stratum TNF-Naïve [1]: 37.1% (N = 35)
- Change in DLQI at Week 12, LS Mean (SE) [2]: −2.4 (1.05)
- Change in HSSA odor at Week 12, LS Mean (SE) [2]: -1.2
- Change in HSSA swelling at Week 12, LS Mean (SE) [2]: -0.931
- Change in HSSA total symptom at Week 12, LS Mean (SE) [2]: -0.969
- Change in HSSA worst drainage at Week 12, LS Mean (SE) [2]: −1.131 (0.31)
- Change in DLQI at Week 12, LS Mean (SE) [3]: -2.4
- Change in HSSA odor at Week 12, LS Mean (SE) [3]: −1.171 (0.36)
- Change in HSSA swelling at Week 12, LS Mean (SE) [3]: −0.922 (0.34)
- Change in HSSA total symptom at Week 12, LS Mean (SE) [3]: −1.034 (0.27)
- Change in HSSA worst drainage at Week 12, LS Mean (SE) [3]: −1.259 (0.30)
- Patients achieving HiSCR 90, n (%) (Week 12, UPA 30 mg, NRI-C, n=47, listed as UPA): 8.5% and 4 (8.5)^‡ %
- Patients achieving HiSCR 75, n (%) [4]: 10 (25.6) %
- Patients achieving HiSCR 90, n (%) [4]: 4 (10.3) %
- Patients achieving HiSCR, n (%) [4]: 18 (46.2) %
- Patients achieving IHS4-55, n (%) [4]: 19 (48.7) %
- Patients achieving HiSCR 75, n (%) [5]: 7 (36.8) %
- Patients achieving HiSCR 90, n (%) [5]: 4 (21.1) %
- Patients achieving HiSCR, n (%) [5]: 10 (52.6) %
- Patients achieving IHS4-55, n (%) [5]: 12 (63.2) %
- Patients achieving IHS4-55, n (%) (Week 40, PBO/UPA 15 mg (switched at week 12), Observed Case, n=14): 85.7%
- Patients achieving IHS4-55, n (%) (Week 40, PBO/UPA 15 mg (switched at week 12), Observed Case, n=14, listed as UPA): 12 (85.7) %
- Patients achieving HiSCR 75, n (%) [6]: 18 (38.3) %
- Patients achieving HiSCR 90, n (%) [6]: 9 (19.1) %
- Patients achieving HiSCR, n (%) [6]: 22 (46.8) %
- Patients achieving IHS4-55, n (%) [6]: 21 (44.7) %
- Patients achieving HiSCR 75, n (%) [7]: 18 (62.1) %
- Patients achieving IHS4-55, n (%) [7]: 72.4%
- Patients achieving IHS4-55, n (%) (Week 40, UPA 30 mg/UPA 30 mg, Observed Case, n=29, listed as UPA): 21 (72.4) %
- subjects achieving HiSCR at Week 12, n (%) (NRI-C): 38.3%
- subjects achieving HiSCR at Week 12, n (%) (NRI-C, listed as Upadacitinib): 18 (38.3) %
- subjects achieving Pain NRS30 at Week 12 among subjects with Baseline NRS ≥ 3, n (%) (NRI-C): 36.4%
- subjects achieving Pain NRS30 at Week 12 among subjects with Baseline NRS ≥ 3, n (%) (NRI-C, listed as UPA): 12 (36.4%)
- subjects achieving Pain NRS30 at Week 12 among subjects with Baseline NRS ≥ 3, n (%) (NRI-C, listed as Upadacitinib): 12 (36.4) %
